This note sets out measurements from patent US20130225591A1, “IMIDOTHIAZOLE KINASE INHIBITORS” (priority 2009, published 2013).

In this assay the target is T1, CDK5-p25 kinase (Homo sapiens, UniProt Q00535).
T1 construct: purchased Invitrogen PV4677
The assay can be described thus: CDK5-p25 kinase enzymatic assay. It counts as biochemical. As to conditions: 5 uM ATP, 0.3 nM CDK5-p25. Here is the method:
CDK5-p25 kinase (Invitrogen PV4677) enzymatic activity was measured using electrophoretic separation and fluorescent detection to monitor phosphorylation of a fluorescently labeled histone H1-derived peptide substrate, FL29 (5-FAM-GGGPATPKKAKKL-CONH2, Caliper #760429)
First, 0.25 uL of serially diluted compound in DMSO at 100× concentration was transferred into each well of a 384-well polystyrene assay plate. To this was added 15 uL of a 1.67× enzyme solution (500 pM enzyme, 1 mM DTT (Sigma D9779), 1× reconstitution buffer with protease inhibitor (Caliper #700329 proprietary formulation)), followed by centrifugation for 1 min at 1000 rpm, and incubation for 5-15 min at room temperature to allow binding of compound to enzyme. To initiate the reaction, 10 uL of substrate/ATP mix (245 mM Hepes pH 7.5, 0.003% Brij 35, 0.004% Tween, 12.75 uM ATP, 3.75 uM FL29 peptide) were added to each well, followed by centrifugation at 1000 rpm for 1 min. The reaction was then incubated at room temperature for 30 min. Final assay conditions were: 0.3 nM CDK5-p25, 1.5 uM peptide, 5 uM ATP, 0.6 mM DTT, 1% DMSO, 98 mM HEPES pH 7.5.
After incubation, reactions were quenched by the addition of 45 uL Caliper termination solution (Caliper proprietary formula), followed by centrifugation at 1000 rpm for 1 min. Extent of reaction (percentage conversion of substrate to phosphorylated product) was then measured using the Caliper EZ II reader. Dose-response curves were created by plotting the inhibition of enzyme activity (normalized relative to vehicle treated and no ATP control reactions) as a function of the log of compound concentration. The curve was analyzed using a four parameter logistical fit to calculate IC50 values.

The mark [1] stands for this setting: 50 nM-99 nM, read-out: IC50 potency, CDK5-p25 kinase enzymatic assay, 50 nM-99 nM.
The mark [2] stands for this setting: '<50 nM', read-out: IC50 potency, CDK5-p25 kinase enzymatic assay, <50 nM.
The mark [3] stands for this setting: 500 nM-3 μM, read-out: IC50 potency, CDK5-p25 kinase enzymatic assay, 500 nM-3 μM.
Setting [4] is: read-out: IC50 potency, CDK5-p25 kinase enzymatic assay, 100 nM-499 nM.

SMILES strings stand for the structures. Where two headings read alike, the source gives them in different places. Bounds are passed on as bounds.

T1 sequence (Q00535 whole entry): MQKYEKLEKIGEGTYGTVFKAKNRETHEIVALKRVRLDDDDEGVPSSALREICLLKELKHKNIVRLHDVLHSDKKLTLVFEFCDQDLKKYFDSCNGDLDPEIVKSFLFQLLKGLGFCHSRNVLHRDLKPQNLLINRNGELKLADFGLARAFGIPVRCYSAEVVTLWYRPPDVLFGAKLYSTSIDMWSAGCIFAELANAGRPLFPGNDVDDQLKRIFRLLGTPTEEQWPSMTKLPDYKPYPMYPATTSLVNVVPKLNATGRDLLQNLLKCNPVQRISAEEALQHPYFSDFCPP
T1 sequence (Q15078 99-307 partner limits assumed): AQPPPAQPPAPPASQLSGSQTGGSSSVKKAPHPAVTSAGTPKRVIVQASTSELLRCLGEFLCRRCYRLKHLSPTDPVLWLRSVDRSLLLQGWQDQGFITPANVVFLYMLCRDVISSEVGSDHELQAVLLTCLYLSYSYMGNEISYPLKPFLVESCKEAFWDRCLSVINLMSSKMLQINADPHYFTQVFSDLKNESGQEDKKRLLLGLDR

For the compound `O=C(Cc1ccc(NC(=O)c2cccnc2)cc1)Nc1ncn2c(C(F)(F)F)csc12` [Example 61, N-[4-(2-oxo-2-{[3-(trifluoromethyl)imidazo[5,1-b][1,3]thiazol-7-yl]amino}ethyl)phenyl] nicotinamide], the IC50 under setting [1] was in the range of 50 to 99 nM.
For the compound `O=C(Cc1ccc(NC(=O)c2ccncc2)cc1)Nc1ncn2c(C(F)(F)F)csc12` [Example 62, N-[4-(2-oxo-2-{[3-(trifluoromethyl)imidazo[5,1-b][1,3]thiazol-7-yl]amino}ethyl)phenyl] isonicotinamide], the IC50 under setting [2] was < 50 nM.
`Nc1ccccc1-c1ccc(CC(=O)Nc2ncn3c(C(F)(F)F)csc23)cn1` [Example 63, 2-[6-(2-aminophenyl)pyridin-3-yl]-N-[3-(trifluoromethyl)imidazo[5,1-b][1,3]thiazol-7-yl]acetamide]: under setting [1], the IC50 lay within 50 to 99 nM.
With `O=C(Cc1cccc(-c2ccncc2)c1)Nc1ncn2c(C(F)(F)F)csc12` [Example 64, 2-(3-pyridin-4-ylphenyl)-N-[3-(trifluoromethyl)imidazo[5,1-b][1,3]thiazol-7-yl]acetamide], the IC50 under setting [2] is < 50 nM.
For `Cc1csc2c(NC(=O)Cc3ccc4ccccc4c3)ncn12` [Example 65, N-(3-methylimidazo [5,1-b][1,3]thiazol-7-yl)-2-(2-naphthyl) acetamide], the IC50 under setting [3] was in the range of 500 to 3000 nM.
For the compound `O=C(Cc1cccc2ccccc12)Nc1ncn2c(C(F)(F)F)csc12` [Example 66, 2-(1-naphthyl)-N-[3-(trifluoromethyl)imidazo[5,1-b][1,3]thiazol-7-yl]acetamide], the IC50 under setting [2] was < 50 nM.
Regarding `O=C(Nc1ncn2c(C(F)(F)F)csc12)C(CO)c1ccc2ccccc2c1` (stereo not drawn) [Example 67, 3-hydroxy-2-(2-naphthyl)-N-[3-(trifluoromethyl)imidazo[5,1-b][1,3]thiazol-7-yl]propanamide], under setting [3], the IC50 was in the range of 500 to 3000 nM.
In the case of `O=C(CN1Cc2ccccc2C1)Nc1ncn2c(C(F)(F)F)csc12` [Example 68, 2-(1,3-dihydro-2H-isoindol-2-yl)-N-[3-(trifluoromethyl)imidazo[5,1-b][1,3]thiazol-7-yl]acetamide], under setting [4], the IC50 lay within 100 to 499 nM.
As for `Cc1nc2cc(CC(=O)Nc3ncn4c(C(F)(F)F)csc34)ccc2o1` [Example 69, 2-(2-methyl-1,3-benzoxazol-5-yl)-N-[3-(trifluoromethyl)imidazo[5,1-b][1,3]thiazol-7-yl]acetamide], the IC50 under setting [2] is < 50 nM.
The same measure, in the same setting: the result for `O=C(Cc1ccc(-c2nnco2)cc1)Nc1ncn2c(C(F)(F)F)csc12` [Example 70, 2-[4-(1,3,4-oxadiazol-2-yl)phenyl]-N-[3-(trifluoromethyl)imidazo[5,1-b][1,3]thiazol-7-yl]acetamide] reads < 50 nM.
`O=C(Cc1ccc(CO)cc1)Nc1ncn2c(C(F)(F)F)csc12` [Example 71, 2-[4-(hydroxymethyl)phenyl]-N-[3-(trifluoromethyl)imidazo[5,1-b][1,3]thiazol-7-yl]acetamide]: the IC50 under setting [1] lay within 50 to 99 nM.
Turning to `O=C(Cc1ccnnc1)Nc1ncn2c(C(F)(F)F)csc12` [Example 72, 2-pyridazin-4-yl-N-[3-(trifluoromethyl)imidazo[5,1-b][1,3]thiazol-7-yl]acetamide], the IC50 under setting [4] lay within 100 to 499 nM.
On to `O=C(Cc1ccc2[nH]cnc2c1)Nc1ncn2c(C(F)(F)F)csc12` [Example 73, 2-(1H-benzimidazol-5-yl)-N-[3-(trifluoromethyl)imidazo[5,1-b][1,3]thiazol-7-yl]acetamide], for which the IC50 under setting [2] was < 50 nM.
Take `O=C(Cc1ccc(C(=O)N2CCCC2)cc1)Nc1ncn2c(C(F)(F)F)csc12` [Example 74, 2-[4-(pyrrolidin-1-ylcarbonyl)phenyl]-N-[3-(trifluoromethyl)imidazo[5,1-b][1,3]thiazol-7-yl]acetamide]: under setting [1], the IC50 lay within 50 to 99 nM.
`NCc1cccc(CC(=O)Nc2ncn3c(C(F)(F)F)csc23)c1` [Example 75, 2-[3-(aminomethyl)phenyl]-N-[3-(trifluoromethyl)imidazo[5,1-b][1,3]thiazol-7-yl]acetamide]: the IC50 under setting [4] is 100 to 499 nM.
On to `O=C(Cc1ccc(NC(=O)c2ccccc2)cc1)Nc1ncn2c(C(F)(F)F)csc12` [Example 79, N-[4-(2-oxo-2-{[3-(trifluoromethyl)imidazo[5,1-b][1,3]thiazol-7-yl)amino}ethyl)phenyl] benzamide], for which, under setting [2], the IC50 was < 50 nM.
Still for that read-out and setting: the result for `O=C(Cc1cccc(-c2nn[nH]n2)c1)Nc1ncn2c(C(F)(F)F)csc12` [Example 80, 2-[3-(2H-tetrazol-5-yl)phenyl]-N-[3-(trifluoromethyl)imidazo[5,1-b][1,3]thiazol-7-yl]acetamide] reads < 50 nM.
Regarding `O=C(Cc1ccc(-c2nn[nH]n2)cc1)Nc1ncn2c(C(F)(F)F)csc12` [Example 81, 2-[4-(2H-tetrazol-5-yl)phenyl]-N-[3-(trifluoromethyl)imidazo[5,1-b][1,3]thiazol-7-yl]acetamide], the IC50 under setting [2] was < 50 nM.
Turning to `O=C(Cc1ccc2ccccc2c1)Nc1ncn2ccsc12` [Example 82, N-imidazo[5,1-b][1,3]thiazol-7-yl-2-(2-naphthyl)acetamide], the IC50 was 500 to 3000 nM under setting [3] and < 50 nM under setting [2].
Consider `O=C(Cc1ccc2ccccc2c1)Nc1ncn2c(Br)csc12` [Example 83, N-(3-Bromoimidazo[5,1-b][1,3]thiazol-7-yl)-2-(naphthalen-2-yl)acetamide], for which the IC50 under setting [2] is < 50 nM.
On to `N#Cc1csc2c(NC(=O)Cc3ccc4ccccc4c3)ncn12` [Example 84, N-(3-cyanoimidazo[5,1-b][1,3]thiazol-7-yl)-2-(naphthalen-2-yl)acetamide], for which the IC50 under setting [3] fell in the range of 500 to 3000 nM.
`O=C(Cc1ccc2ccccc2c1)Nc1ncn2c(C(F)(F)F)c(C(=O)O)sc12` [Example 85, 7-[(Naphthalen-2-ylacetyl)amino]-3-(trifluoromethyl)imidazo[5,1-b][1,3]thiazole-2-carboxylic Acid]: the IC50 under setting [2] was < 50 nM.
Same read-out and setting: next, `NC(=O)c1sc2c(NC(=O)Cc3ccc4ccccc4c3)ncn2c1C(F)(F)F` [Example 86, 7-[(Naphthalen-2-ylacetyl)amino]-3-(trifluoromethyl)imidazo[5,1-b][1,3]thiazole-2-carboxyamide]: < 50 nM.
